Results taken from ChEMBL document CHEMBL3098092, “Fluorescent probes of the isoxazole-dihydropyridine scaffold: MDR-1 binding and homology model” (Bioorg Med Chem Lett, 2014).

How the values were obtained:
[1] = Drug uptake in human SH-SY5Y cells at 1 uM after 90 mins by confocal fluorescence microscopy analysis; assay type: ADME, cell-based; settings: 1.5 h
[2] = Drug uptake in human SH-SY5Y cells at 10 uM after 90 mins by confocal fluorescence microscopy analysis; assay type: ADME, cell-based; settings: 1.5 h
[3] = target: MDR-1 (P-glycoprotein, ABCB1) (Homo sapiens, UniProt P08183); experiment: Inhibition of MDR-1 (unknown origin) expressed in human Caco2 cells using Calcein-AM at 50 uM preincubated for 30 mins by fluorescence based PDSP assay relative to control; assay type: cell-based; settings: Caco-2 cells expressing MDR-1, probe Calcein-AM
Sequence of MDR-1 (P-glycoprotein, ABCB1) (P08183 whole entry): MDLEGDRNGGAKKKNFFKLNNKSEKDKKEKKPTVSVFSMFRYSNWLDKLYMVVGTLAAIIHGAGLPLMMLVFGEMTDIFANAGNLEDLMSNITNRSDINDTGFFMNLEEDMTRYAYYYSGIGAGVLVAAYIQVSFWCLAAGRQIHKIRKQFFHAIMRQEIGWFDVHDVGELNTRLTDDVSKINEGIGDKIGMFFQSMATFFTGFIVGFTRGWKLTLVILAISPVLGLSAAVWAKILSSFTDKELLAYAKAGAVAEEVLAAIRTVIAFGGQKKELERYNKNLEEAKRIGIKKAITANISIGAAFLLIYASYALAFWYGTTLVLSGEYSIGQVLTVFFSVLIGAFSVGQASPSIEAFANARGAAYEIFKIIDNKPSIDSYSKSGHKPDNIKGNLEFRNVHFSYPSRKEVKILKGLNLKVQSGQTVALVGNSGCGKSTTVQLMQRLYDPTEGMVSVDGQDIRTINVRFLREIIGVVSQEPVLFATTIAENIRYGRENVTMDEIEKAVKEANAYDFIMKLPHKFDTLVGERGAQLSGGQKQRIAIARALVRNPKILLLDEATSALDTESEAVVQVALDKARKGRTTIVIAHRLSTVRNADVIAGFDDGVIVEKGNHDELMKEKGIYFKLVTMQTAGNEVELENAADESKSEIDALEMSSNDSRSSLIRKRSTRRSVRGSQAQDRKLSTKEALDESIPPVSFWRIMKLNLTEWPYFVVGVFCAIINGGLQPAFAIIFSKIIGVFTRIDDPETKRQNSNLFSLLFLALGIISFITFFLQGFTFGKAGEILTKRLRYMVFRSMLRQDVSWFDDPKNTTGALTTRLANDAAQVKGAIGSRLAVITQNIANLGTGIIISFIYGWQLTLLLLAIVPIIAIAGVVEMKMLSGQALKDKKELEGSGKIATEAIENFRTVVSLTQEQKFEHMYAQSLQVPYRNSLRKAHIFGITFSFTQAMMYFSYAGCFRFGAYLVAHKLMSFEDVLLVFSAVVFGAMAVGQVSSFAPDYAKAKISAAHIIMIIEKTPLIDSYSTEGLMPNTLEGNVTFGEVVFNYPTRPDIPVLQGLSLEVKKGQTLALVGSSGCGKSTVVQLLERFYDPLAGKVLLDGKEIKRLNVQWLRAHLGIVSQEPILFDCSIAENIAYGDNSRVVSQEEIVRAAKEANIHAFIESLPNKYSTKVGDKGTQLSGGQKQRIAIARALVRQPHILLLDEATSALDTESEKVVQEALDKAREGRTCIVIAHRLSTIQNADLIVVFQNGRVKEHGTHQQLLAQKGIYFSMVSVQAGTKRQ

| Drug uptake [1] | Drug uptake [2] | inhibition at 30 min, 50 µM [3] | SMILES |
| --- | --- | --- | --- |
| Active | – | – | CCOC(=O)C1=C(C)NC(C)=C(C(=O)NCCCCCCNS(=O)(=O)c2ccc(-c3c4ccc(N(CC)CC)cc4[o+]c4cc(N(CC)CC)ccc34)c(S(=O)(=O)[O-])c2)C1c1c(-c2ccccc2)noc1C (stereo not drawn) |
| – | Active | 63% | CCOC(=O)C1=C(C)NC(C)=C(C(=O)NCCCCCCCCNS(=O)(=O)c2cccc3c(N(C)C)cccc23)C1c1c(-c2ccccc2)noc1C (stereo not drawn) |
